The source of these data is paper PMC8580050, “Improvement of the antimicrobial potency, pharmacokinetic and pharmacodynamic properties of albicidin by incorporation of nitrogen atoms” (Chemical Science, 2021).

Values after ≈ are worked out from the molar mass of the structure shown. Read-outs that look alike come from different tables or passages of the source. Some results are limits rather than exact numbers.

The nature of data set [1]: Cell proliferation assay (HepG2 cells). To be noted: human. Here is the method:
(§1) Cell proliferation assay (HepG2 cells)
(§2) The assay was performed by the company Eurofins (Taiwan). Cytotoxicity was representatively
(§3) according to a protocol by Ansar et al.27 This is in line with previously published cytotoxicity data on
(§4) GI = growth inhibition; TGI = total growth inhibition; LC = lethal concentration

In a further data set the test system is HepG2 cells. Put plainly: Cell proliferation assay (HepG2 cells). Conditions: HepG2 cells. The protocol:
as §1, §2, §3, §4

Another data set deals with E. coli DSM 1116. Briefly: MIC determination (broth microdilution). It counts as cell-based, Escherichia coli. To be noted: Escherichia coli, DSM1116. Here is the method:
(§5) 1.1.1 In vitro experiments
(§6) Determination of Minimal inhibitory concentrations (MIC)
(§7) Approved Standard M07-A9.1
(§8) CFU mL-1. […] Albicidin and […]
(§9) and serially diluted in DMSO (100%). […]
(§10) in 0.1 N HCL, respectively.
(§11) One row of each well plate served as a […]
(§12) sterility control (only MHB II-media). […]
(§13) adding 5 µL DMSO to several wells. […]
(§14) for growth inhibition by naked eye.
(§15) Microorganisms and Cell Cultures (DSMZ): […]

The test system of a further data set is S. Typhimurium TA100. Briefly: MIC determination (broth microdilution). It counts as cell-based, Salmonella typhimurium. Conditions: Salmonella enterica; S. Typhimurium TA100; read-out: MIC. The protocol:
as §5, §6, §7, §8, §9, §10, §11, §12, §13, §14, §15
(Dilution methods test growth across graded concentrations, often in twofold steps.)

Another data set has as its system B. subtilis DSM 10. Put plainly: MIC determination (broth microdilution). Conditions: Bacillus subtilis, DSM10; B. subtilis DSM 10; read-out: MIC. It counts as cell-based. The protocol: as §5, §6, §7, §8, §9, §10, §11, §12, §13, §14, §15
Another data set deals with E. coli BW25113. Put plainly: MIC determination (broth microdilution). It counts as cell-based. Conditions: Escherichia coli. Here is the method: as §5, §6, §7, §8, §9, §10, §11, §12, §13, §14, §15
The next data set concerns M. luteus DSM1790. Briefly: MIC determination (broth microdilution). It counts as cell-based, Micrococcus luteus. To be noted: M. luteus DSM1790. The protocol:
as §5, §6, §7, §8, §9, §10, §11, §12, §13, §14, §15

The next data set has as its system M. phlei DSM 750. Briefly: MIC determination (broth microdilution). It counts as cell-based, Mycobacterium phlei. Conditions: Mycolicibacterium phlei, DSM750; M. phlei DSM 750; read-out: MIC. Here is the method:
as §5, §6, §7, §8, §9, §10, §11, §12, §13, §14

Data set [2] has as its system E. coli DSM 1116 + 50% Human Serum. Briefly: MIC determination in presence of 50% human serum. It counts as cell-based. To be noted: Escherichia coli, DSM1116; E. coli DSM 1116 + 50% Human Serum; read-out: MIC.
From the text: This investigation was completed by assessment of the antibacterial activity in presence of human plasma (50%) (Table 1), since high plasma protein binding can severely impair antibacterial activity and thus efficacy.
as §5, §6, §7, §8, §9, §10, §11, §12, §13, §14, §15

The next data set deals with T1, E. coli DNA gyrase (Escherichia coli, UniProt P0AES4+P0AES6).
T1 construct: purchased inspiralis Limited, Norwich, UK
Put plainly: E. coli gyrase supercoiling inhibition assay. It counts as biochemical. On the set-up: key: ↑: for stronger inhibition; ≈: for equal inhibition; ↓: for diminished inhibition compared to albicidin 1. To be noted: constant concentration of 45 nM, compared to albicidin 1. Here is the method: Escherichia coli Gyrase Supercoiling Inhibition Assay
loaded on an agarose gel.
2-15. […] Addition of DNA
All derivatives were tested at a concentration of […]

A further data set relates to Gram-negative strains. Briefly: MIC, primary panel. It counts as cell-based. To be noted: Salmonella enterica, TYPHIMURIUM
The protocol: as §5, §6, §7, §8, §9, §10, §11, §12, §13, §14
(§16) Microorganisms and Cell Cultures (DSMZ):
Mycobacterium phlei DSM 750
Salmonella typhimurium TA100 was kindly provided by Prof. Dr. Vera Meyer (Technische Universität […]
Brötz-Oesterheldt (Tübingen, Germany)/ Prof. Dr. Heisig (Hamburg, Germany)2 Escherichia coli WT (GK571)
Escherichia coli WT-3-1 (GK796) [gyrA (S83L, D87G)]
Escherichia coli MI (GK572) [gyrA (S83L)] […]
or by Prof. Dr. Werner (Robert-Koch-Institut, Wernigerode, Germany): […]

A further data set relates to Gram-positive strains. Put plainly: MIC, primary panel. It counts as cell-based. The protocol: as §5, §6, §7, §8, §9, §10, §11, §12, §13, §14, §16
Mycobacterium phlei DSM 750 […]
Dr. Werner (Robert-Koch-Institut, Wernigerode, Germany): […]

Setting [3] is: E. coli DSM 1116, read-out: MIC.
The mark [4] stands for this setting: Micrococcus luteus, read-out: MIC.

The term CC50 denotes the concentration at which the toxic effect on the cells reaches its halfway point. By GI50 is commonly meant the concentration at which growth is held to half of that of the control. In data set [1], `CN[C@@H]1C[C@H]2O[C@@](C)([C@@H]1OC)n1c3ccccc3c3c4c(c5c6ccccc6n2c5c31)C(=O)NC4` [Staurosporine, reference compound] showed a CC50 of 5.81 µM and a 50% growth inhibitory concentration (GI50) of 5.23 nM. In addition, the “TGI (total growth inhibition)” value with HepG2 cells was < 0.14 µM.
What is called MIC is the lowest concentration found to suppress growth. As to `COc1c(NC(=O)c2ccc(NC(=O)[C@H](Cc3c[nH]nn3)NC(=O)c3ccc(NC(=O)/C(C)=C/c4ccc(O)cc4)cc3)cc2)ccc(C(=O)Nc2ccc(C(=O)O)nc2)c1O` [Compound 12], the minimum inhibitory concentration (MIC) with E. coli DSM 1116 (setting [3]) is 64 µg/mL (≈ 76.2 µM); in the data set on S. Typhimurium TA100, 0.125 µg/mL (≈ 0.149 µM); in the data set with B. subtilis DSM 10 it was ≥ 128 µg/mL; against E. coli BW25113, ≥ 128 µg/mL; in the data set with M. luteus DSM1790 (setting [4]), 32 µg/mL (≈ 38.1 µM); in the data set with M. phlei DSM 750, 32 µg/mL (≈ 38.1 µM). For the same compound, the minimum inhibitory concentration (MIC) was ≥ 8 µg/mL in data set [2], > 32 µg/mL with Gram-negative strains and > 32 µg/mL in the data set on Gram-positive strains. For the same compound, on E. coli DNA gyrase, the “E. coli gyrase inhibition” value is reported as “↓”.
With `COc1c(NC(=O)c2ccc(NC(=O)[C@H](Cc3c[nH]nn3)NC(=O)c3ccc(NC(=O)/C(C)=C/c4ccc(O)cc4)cc3)cc2)ccc(C(=O)Nc2ccc(C(=O)O)cc2)c1O` [Compound 14, reference compound], the minimal inhibitory concentration (MIC) in the data set on E. coli DSM 1116 (setting [3]) came to 0.25 µg/mL (≈ 0.298 µM); in the data set with S. Typhimurium TA100, 0.016 µg/mL (≈ 0.0191 µM); in the data set with B. subtilis DSM 10, 0.5 µg/mL (≈ 0.596 µM); against E. coli BW25113, 0.125 µg/mL (≈ 0.149 µM); in the data set with M. luteus DSM1790 (setting [4]), 2 µg/mL (≈ 2.38 µM); with M. phlei DSM 750, 1 µg/mL (≈ 1.19 µM). The minimum inhibitory concentration (MIC) in data set [2] came to 8 µg/mL. Moreover, at E. coli DNA gyrase, the “E. coli gyrase inhibition” value was “≈”.
On to `COc1c(NC(=O)c2ccc(NC(=O)c3ccc(NC(=O)[C@H](Cc4c[nH]nn4)NC(=O)c4ccc(NC(=O)/C(C)=C/c5ccc(O)cc5)cc4)cc3)nc2)ccc(C(=O)O)c1O` [Compound 10], for which the MIC in the data set with E. coli DSM 1116 (setting [3]) amounted to 0.063 µg/mL (≈ 0.075 µM); with S. Typhimurium TA100 it was 0.016 µg/mL (≈ 0.0191 µM); with B. subtilis DSM 10, 2 µg/mL (≈ 2.38 µM); against E. coli BW25113, 0.063 µg/mL (≈ 0.075 µM); against M. luteus DSM1790, 32.0 µg/mL (≈ 38.1 µM); with M. luteus DSM1790 (setting [4]), 32 µg/mL (≈ 38.1 µM). For the same compound, the MIC amounted to 2 µg/mL (≈ 2.38 µM) with M. phlei DSM 750 and 2 µg/mL in data set [2]. Besides, the “E. coli gyrase inhibition” value on E. coli DNA gyrase was “↓”.
Take `COc1c(NC(=O)c2ccc(NC(=O)c3ccc(NC(=O)[C@H](Cc4c[nH]nn4)NC(=O)c4ccc(NC(=O)/C(C)=C/c5ccc(O)cc5)cc4)cc3)cn2)ccc(C(=O)O)c1O` [Compound 9]: the MIC with E. coli DSM 1116 (setting [3]) was 0.031 µg/mL (≈ 0.0369 µM); in the data set with S. Typhimurium TA100, 0.031 µg/mL (≈ 0.0369 µM); with B. subtilis DSM 10, 1 µg/mL (≈ 1.19 µM); in the data set with E. coli BW25113 it was 0.031 µg/mL (≈ 0.0369 µM); with M. luteus DSM1790 (setting [4]), 1 µg/mL (≈ 1.19 µM); in the data set with M. phlei DSM 750, 1 µg/mL (≈ 1.19 µM). The minimum inhibitory concentration (MIC) in data set [2] is ≥ 8 µg/mL. In addition, the “E. coli gyrase inhibition” value at E. coli DNA gyrase was “↓”.
On to `COc1c(NC(=O)c2ccc(NC(=O)[C@H](Cc3c[nH]nn3)NC(=O)c3ccc(NC(=O)/C(C)=C/c4ccc(O)cc4)cc3)cc2)ccc(C(=O)Nc2ccc(C(=O)O)cn2)c1O` [Compound 13], for which the MIC with E. coli DSM 1116 came to 0.125 µg/mL (≈ 0.149 µM); in the data set on S. Typhimurium TA100, 0.016 µg/mL (≈ 0.0191 µM); with B. subtilis DSM 10, 4 µg/mL (≈ 4.76 µM); against E. coli BW25113 it was 0.125 µg/mL (≈ 0.149 µM); with M. luteus DSM1790 (setting [4]) it was 4 µg/mL (≈ 4.76 µM); with M. phlei DSM 750 it was 4 µg/mL (≈ 4.76 µM). The MIC in [2] amounted to 8 µg/mL; against Gram-negative strains it was 0.125 µg/mL (≈ 0.149 µM); in the data set on Gram-positive strains, 4 µg/mL (≈ 4.76 µM). Also, the “E. coli gyrase inhibition” value on E. coli DNA gyrase was “≈”.
